According to PMC5600443 (Biochemistry and Biophysics Reports, 2016):
Values joined by “and” are separate entries in the source; they are usually repeats but may differ in a detail not shown here. Equal values may be shown once.

How the values were obtained:
Format in all cases: cell-based
[1] = tested on: RH-35 rat liver cancer cell line; experiment: MTT assay, inhibition of proliferation of RH-35 rat liver cancer cells; settings: read-out: Cell proliferation RH-35 IC50, rat RH-35 cells, 72 h, average of 3 independent experiments + SEM
[2] = biological target: rat α1/β1 (Rα1/β1) Na^+,K^+pump (Rattus norvegicus, UniProt P06685); settings: for Efficiency coefficient A = 100*IC50 Na,K pump/IC50 proliferation, Rα1/β1 pump: Rα1/β1 pump IC50 versus RH-35 cell proliferation IC50
[3] = biological target: rat α2/β1 (Rα2/β1) Na^+,K^+pump (Rattus norvegicus, UniProt P06686); settings: Rα2/β1 pump IC50 versus RH-35 cell proliferation IC50

| Compound | IC50 [1] | Effect on Rα1/β1 pump current ([2]; 0.05 µM drug) | Inhibition of Rα1/β1 pump current ([2]; 0.50 µM drug) | Efficiency coefficient A = 100*IC50 Na,K pump/IC50 proliferation, Rα1/β1 pump [2] | Efficiency coefficient A = 100*IC50 Na,K pump/IC50 proliferation, Rα2/β1 pump [3] |
| --- | --- | --- | --- | --- | --- |
| CC12CCC(OC(=O)NCCCn3ccnc3)CC1CCC1C2CCC2(C)C(c3ccc(=O)oc3)CCC12O (centres unmarked) [BF238, Bufalin-3-yl [3-(1h-imidazol-1-yl)propyl]carbamate] | 37.4 ± 3.1 µM | hardly affected | more than 50% | 0.88 | 2.64 |
| CNCCCNC(=O)O[C@H]1CC[C@@]2(C)[C@H](CC[C@@H]3[C@@H]2CC[C@]2(C)[C@@H](c4ccc(=O)oc4)CC[C@]32O)C1 [BF601, Bufalin-3-yl [3-(methylamino)propyl]carbamate] | ~30.8 µM and 30.8 µM | – | – | 0.35 | 0.92 |
| Bufalin-3-MeON-arabinopyranoside [BAP] | ~67.2 µM and 67.2 µM | – | – | 0.10 | 0.16 |
